Values belong to the compound of their own block, whether it stands above or below them. Active and inactive are the calls of the source.
Experiments:
[1] = target: T1, Tyrosine-protein phosphatase non-receptor type 11 (Homo sapiens, UniProt Q06124); experiment: PTPN11 enzyme inhibitors – biochemical, selectivity assay for STEP inhibitor project, dose response (AID 602367); assay type: functional; settings: read-out: IC50_Mean
T1 sequence (Q06124 whole entry): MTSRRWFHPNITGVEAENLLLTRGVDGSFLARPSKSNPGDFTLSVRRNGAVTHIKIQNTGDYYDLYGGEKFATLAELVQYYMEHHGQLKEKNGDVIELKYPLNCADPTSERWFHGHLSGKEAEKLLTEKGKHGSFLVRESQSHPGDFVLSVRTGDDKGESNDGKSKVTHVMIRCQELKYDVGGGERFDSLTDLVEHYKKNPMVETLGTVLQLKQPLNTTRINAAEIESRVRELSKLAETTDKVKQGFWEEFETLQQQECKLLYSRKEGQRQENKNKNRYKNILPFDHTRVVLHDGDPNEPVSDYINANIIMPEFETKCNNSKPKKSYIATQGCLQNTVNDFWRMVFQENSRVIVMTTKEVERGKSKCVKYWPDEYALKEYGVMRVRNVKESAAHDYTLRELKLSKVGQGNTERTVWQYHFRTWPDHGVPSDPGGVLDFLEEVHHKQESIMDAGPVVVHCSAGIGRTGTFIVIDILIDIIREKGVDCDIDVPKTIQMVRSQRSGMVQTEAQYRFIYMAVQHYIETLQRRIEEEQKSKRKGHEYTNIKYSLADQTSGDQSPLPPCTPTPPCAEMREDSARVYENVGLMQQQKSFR

[2] = target: T2, Carboxy-terminal domain RNA polymerase II polypeptide A small phosphatase 1 (Homo sapiens, UniProt Q9GZU7); experiment: CTDSP1 inhibitors, concentration-response, biochemical, absorbance readout, ultra-high-throughput screen actives (AID 540297); assay type: functional
T2 sequence (Q9GZU7 whole entry): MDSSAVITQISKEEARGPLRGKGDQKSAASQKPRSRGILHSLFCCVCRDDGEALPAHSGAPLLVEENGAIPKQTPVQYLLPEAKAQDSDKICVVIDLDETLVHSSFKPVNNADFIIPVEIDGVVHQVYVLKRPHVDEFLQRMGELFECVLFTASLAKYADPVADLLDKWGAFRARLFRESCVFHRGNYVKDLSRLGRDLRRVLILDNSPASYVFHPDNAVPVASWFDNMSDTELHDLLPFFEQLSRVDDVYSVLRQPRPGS

[3] = target: Dual specificity protein phosphatase 3 (Homo sapiens, UniProt P51452); experiment: VHR phosphatase inhibition, dose response, selectivity assay for STEP inhibitor project, biochemical (AID 602374); assay type: functional; settings: read-out: IC50_Mean
Chain of Dual specificity protein phosphatase 3 (P51452 whole entry): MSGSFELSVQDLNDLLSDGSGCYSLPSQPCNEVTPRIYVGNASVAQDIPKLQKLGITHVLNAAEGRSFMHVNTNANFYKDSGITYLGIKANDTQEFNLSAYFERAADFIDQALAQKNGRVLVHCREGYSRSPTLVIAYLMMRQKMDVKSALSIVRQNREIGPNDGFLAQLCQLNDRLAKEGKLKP

[4] = target: T3, Tyrosine-protein phosphatase non-receptor type 5 (Homo sapiens, UniProt P54829); experiment: PTPN5 enzyme inhibition – biochemical, fluorescence intensity, uHTS hits, confirmation (AID 602372); assay type: functional; settings: read-out: IC50_Mean
T3 sequence (P54829 whole entry): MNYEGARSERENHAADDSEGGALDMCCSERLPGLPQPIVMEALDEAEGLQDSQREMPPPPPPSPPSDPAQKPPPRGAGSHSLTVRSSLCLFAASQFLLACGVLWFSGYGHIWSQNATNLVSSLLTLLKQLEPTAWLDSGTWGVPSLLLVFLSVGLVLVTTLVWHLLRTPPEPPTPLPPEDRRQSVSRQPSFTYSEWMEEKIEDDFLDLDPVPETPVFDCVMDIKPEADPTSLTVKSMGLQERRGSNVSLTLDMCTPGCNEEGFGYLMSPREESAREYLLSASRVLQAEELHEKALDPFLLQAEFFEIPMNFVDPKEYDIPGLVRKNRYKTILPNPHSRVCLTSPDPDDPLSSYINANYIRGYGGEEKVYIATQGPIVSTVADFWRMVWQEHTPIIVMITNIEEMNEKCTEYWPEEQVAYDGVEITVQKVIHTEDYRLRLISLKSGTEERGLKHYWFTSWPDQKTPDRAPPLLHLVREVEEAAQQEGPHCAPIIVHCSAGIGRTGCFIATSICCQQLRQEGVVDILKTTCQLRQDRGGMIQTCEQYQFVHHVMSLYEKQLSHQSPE

[5] = target: T4, Low molecular weight phosphotyrosine protein phosphatase (Homo sapiens, UniProt P24666); assay type: functional; settings: read-out: IC50_Mean
T4 sequence (P24666 whole entry): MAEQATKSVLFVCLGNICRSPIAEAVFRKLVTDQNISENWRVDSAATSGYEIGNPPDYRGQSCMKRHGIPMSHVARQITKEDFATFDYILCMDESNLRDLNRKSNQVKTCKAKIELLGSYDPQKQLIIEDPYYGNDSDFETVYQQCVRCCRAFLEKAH

[6] = target: T4, Low molecular weight phosphotyrosine protein phosphatase; assay type: functional; settings: read-out: IC50_Mean; remark: listed apart in the source
[7] = target: T5, Small ubiquitin-related modifier 1 (Homo sapiens, UniProt P63165); experiment: SUMO1 protein interaction blockers, potency – biochemical, fluorescence polarization, uHTS hits, dose response (AID 624382); assay type: functional; settings: read-out: IC50_Mean
T5 sequence (P63165 whole entry): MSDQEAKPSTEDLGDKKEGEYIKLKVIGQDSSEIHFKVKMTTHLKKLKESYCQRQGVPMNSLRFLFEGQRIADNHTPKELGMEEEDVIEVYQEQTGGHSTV

[8] = target: T6, Voltage-gated N-type calcium channel alpha-1B subunit/Amyloid beta A4 precursor protein-binding family A member 1 (Homo sapiens, UniProt Q00975+Q02410); assay type: protein assay
T6 sequence (Q00975 whole entry): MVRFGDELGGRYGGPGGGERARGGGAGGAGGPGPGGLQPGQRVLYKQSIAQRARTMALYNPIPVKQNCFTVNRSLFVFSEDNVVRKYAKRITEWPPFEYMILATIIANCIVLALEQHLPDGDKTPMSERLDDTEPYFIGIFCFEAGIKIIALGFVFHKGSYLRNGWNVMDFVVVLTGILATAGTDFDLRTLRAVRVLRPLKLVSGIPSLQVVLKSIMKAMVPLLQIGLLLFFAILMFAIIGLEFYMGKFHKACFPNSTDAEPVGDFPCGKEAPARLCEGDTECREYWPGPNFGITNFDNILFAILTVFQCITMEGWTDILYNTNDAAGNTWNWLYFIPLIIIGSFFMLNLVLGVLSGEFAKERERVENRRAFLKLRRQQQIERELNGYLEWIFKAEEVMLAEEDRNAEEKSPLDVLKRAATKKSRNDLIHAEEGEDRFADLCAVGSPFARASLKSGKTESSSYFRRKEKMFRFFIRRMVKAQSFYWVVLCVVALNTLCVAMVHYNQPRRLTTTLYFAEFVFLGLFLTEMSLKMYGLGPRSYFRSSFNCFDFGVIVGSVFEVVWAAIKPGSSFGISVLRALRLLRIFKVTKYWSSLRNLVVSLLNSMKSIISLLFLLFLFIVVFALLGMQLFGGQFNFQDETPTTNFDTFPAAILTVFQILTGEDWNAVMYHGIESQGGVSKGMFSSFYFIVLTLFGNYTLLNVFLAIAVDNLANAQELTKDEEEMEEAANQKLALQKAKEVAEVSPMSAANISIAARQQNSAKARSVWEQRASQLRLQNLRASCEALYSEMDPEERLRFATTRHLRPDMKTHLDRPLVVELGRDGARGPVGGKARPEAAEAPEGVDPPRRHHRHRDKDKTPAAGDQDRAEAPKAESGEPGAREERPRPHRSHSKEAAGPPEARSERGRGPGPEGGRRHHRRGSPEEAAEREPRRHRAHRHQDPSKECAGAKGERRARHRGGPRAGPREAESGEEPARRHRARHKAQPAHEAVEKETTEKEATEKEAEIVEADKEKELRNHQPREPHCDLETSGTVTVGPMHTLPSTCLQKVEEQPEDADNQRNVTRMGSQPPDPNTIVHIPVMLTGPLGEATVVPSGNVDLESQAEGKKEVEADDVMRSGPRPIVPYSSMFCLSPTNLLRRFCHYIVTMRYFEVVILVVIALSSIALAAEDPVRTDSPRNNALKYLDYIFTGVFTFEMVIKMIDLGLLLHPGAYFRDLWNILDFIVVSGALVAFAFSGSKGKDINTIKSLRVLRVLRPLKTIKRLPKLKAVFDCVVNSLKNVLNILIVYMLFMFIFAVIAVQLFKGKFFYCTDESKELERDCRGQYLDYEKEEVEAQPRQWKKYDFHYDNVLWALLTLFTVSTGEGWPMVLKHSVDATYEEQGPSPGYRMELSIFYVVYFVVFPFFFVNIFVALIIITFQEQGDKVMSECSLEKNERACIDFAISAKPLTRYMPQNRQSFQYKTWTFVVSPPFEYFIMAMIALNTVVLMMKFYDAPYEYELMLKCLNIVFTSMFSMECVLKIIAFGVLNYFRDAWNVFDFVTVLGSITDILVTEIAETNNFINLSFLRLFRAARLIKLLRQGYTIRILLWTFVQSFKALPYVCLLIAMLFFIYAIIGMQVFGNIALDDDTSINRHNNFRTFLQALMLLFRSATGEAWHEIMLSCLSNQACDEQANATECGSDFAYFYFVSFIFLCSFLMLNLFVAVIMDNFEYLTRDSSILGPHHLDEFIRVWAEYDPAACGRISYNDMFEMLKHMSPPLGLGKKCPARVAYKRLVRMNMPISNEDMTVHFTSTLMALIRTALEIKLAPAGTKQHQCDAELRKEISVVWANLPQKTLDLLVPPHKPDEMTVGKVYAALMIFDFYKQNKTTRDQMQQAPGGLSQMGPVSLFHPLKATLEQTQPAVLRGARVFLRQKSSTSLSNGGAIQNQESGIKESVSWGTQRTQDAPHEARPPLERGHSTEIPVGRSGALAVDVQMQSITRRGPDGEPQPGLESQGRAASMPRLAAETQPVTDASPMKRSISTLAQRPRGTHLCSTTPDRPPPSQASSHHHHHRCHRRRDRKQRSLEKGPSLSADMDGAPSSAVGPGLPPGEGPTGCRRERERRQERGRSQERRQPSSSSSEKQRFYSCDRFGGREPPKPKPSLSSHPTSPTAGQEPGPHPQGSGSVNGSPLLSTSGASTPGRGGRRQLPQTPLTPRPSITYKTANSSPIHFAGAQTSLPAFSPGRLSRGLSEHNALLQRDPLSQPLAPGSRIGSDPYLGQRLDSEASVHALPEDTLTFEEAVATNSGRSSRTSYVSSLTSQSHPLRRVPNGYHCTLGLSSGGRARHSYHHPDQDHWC
T6 sequence (Q02410 whole entry): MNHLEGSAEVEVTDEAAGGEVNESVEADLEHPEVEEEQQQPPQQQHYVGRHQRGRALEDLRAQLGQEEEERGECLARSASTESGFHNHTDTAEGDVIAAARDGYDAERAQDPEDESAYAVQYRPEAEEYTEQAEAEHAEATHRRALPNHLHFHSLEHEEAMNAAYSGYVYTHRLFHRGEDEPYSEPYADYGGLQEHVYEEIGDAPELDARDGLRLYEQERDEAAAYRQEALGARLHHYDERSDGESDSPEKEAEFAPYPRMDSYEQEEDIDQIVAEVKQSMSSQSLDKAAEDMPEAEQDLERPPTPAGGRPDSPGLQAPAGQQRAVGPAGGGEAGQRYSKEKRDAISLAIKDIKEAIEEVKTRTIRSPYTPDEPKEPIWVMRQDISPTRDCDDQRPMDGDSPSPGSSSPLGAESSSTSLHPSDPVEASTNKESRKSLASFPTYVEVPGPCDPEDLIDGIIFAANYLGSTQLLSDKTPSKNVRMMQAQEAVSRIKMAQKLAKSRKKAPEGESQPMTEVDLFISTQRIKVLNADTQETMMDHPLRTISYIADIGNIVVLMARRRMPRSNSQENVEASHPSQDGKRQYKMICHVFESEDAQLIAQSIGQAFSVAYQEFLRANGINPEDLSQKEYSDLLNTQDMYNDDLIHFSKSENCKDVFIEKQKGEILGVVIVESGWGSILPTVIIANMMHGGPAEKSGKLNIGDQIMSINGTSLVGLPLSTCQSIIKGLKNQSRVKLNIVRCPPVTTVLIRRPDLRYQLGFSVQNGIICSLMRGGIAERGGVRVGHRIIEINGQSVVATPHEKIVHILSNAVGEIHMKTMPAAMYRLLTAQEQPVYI

[9] = target: T6, Voltage-gated N-type calcium channel alpha-1B subunit/Amyloid beta A4 precursor protein-binding family A member 1; assay type: protein assay; remark: listed apart in the source
[10] = target: T5, Small ubiquitin-related modifier 1; experiment: SUMO1 protein-protein binding blockers, potency – biochemical, FRET, dose response (AID 624383); assay type: functional; settings: read-out: IC50_Mean
[11] = Luminescence Cell-Based Dose Retest to Confirm Inhibitors of Cancer Stem Cells. [Related pubchem assays (depositor defined):AID2717, AID2721]; assay type: functional; settings: Homo sapiens
[12] = Fluorescence-based cell-based high throughput dose response assay for inhibitors of the interaction of nucleotide-binding oligomerization domain containing 2 (NOD2) and the receptor-interacting serine-threonine kinase 2 (RIPK2).; assay type: functional; settings: Homo sapiens
[13] = target: T7, Microphthalmia-associated transcription factor (Homo sapiens, UniProt O75030); experiment: reducers of TRPM1 reporter luminescence, concentration series – cell-based, SK-MEL-5, cherry-picked, set 3, MITF inhibitor project, dose response (AID 493073); assay type: functional;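 note: SK-MEL-5 melanoma cells with luciferase driven by the MITF target TRPM1 promoter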
T7 sequence (O75030 whole entry): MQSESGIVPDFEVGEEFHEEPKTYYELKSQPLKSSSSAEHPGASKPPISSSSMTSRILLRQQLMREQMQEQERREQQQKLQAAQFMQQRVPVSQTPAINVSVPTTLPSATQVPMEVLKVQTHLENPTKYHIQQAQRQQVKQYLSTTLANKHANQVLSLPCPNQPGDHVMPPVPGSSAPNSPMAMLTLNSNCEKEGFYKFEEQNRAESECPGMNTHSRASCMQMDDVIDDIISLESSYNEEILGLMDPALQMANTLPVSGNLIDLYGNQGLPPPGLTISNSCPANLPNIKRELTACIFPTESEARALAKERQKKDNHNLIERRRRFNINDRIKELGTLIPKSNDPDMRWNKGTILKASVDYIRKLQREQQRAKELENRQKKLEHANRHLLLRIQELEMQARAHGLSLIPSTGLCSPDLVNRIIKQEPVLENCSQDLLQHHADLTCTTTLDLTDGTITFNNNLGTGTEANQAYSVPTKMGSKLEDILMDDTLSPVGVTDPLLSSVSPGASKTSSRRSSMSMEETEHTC

[14] = activation of miR-122 Renilla sensor silencing – cell-based, Huh7 psiCHECK-miR122, Renilla luciferase, cherry-picked, dose response (AID 651956); assay type: functional;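 note: huh7 hepatoma cells stably carrying a psiCHECK-2 miR-122 sensor plasmid; renilla luciferase signal reporting endogenous miR-122 activity after 48 h compound exposure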
[15] = viability loss in HeLa cells – cytotoxicity control for MgcRacGAP inhibitor project, dose response (AID 624300); assay type: functional
[16] = target: T8, Rac GTPase-activating protein 1 (Homo sapiens, UniProt Q9H0H5); experiment: blockers of MgcRacGAP-driven Rac1 GTP hydrolysis – biochemical, ADP Hunter fluorescence, primary and confirmatory, confirmation (AID 624330); assay type: functional
T8 sequence (Q9H0H5 whole entry): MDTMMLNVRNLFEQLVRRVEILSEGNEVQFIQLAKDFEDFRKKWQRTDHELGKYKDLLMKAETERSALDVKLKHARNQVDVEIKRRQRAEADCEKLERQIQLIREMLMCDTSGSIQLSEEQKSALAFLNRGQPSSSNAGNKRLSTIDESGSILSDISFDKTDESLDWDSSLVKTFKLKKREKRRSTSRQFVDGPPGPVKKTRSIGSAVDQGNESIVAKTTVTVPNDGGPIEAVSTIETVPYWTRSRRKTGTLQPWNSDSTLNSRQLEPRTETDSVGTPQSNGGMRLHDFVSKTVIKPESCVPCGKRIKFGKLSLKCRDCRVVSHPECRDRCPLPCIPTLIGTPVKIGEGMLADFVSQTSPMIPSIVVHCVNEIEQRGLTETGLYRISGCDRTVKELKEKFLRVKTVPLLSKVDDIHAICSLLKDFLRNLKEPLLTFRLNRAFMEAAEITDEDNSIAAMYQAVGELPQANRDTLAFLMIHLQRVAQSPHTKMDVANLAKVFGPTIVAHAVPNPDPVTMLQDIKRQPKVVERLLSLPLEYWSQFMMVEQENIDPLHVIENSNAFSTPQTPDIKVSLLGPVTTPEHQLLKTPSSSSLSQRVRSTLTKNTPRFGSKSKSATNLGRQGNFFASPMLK

INS1 = experiment: INS-1E survival protection against cytokine death – cell-based, luminescence, retest, dose response (AID 449756); assay type: functional; settings: Rattus norvegicus;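 note: cell death triggered by IL-1 beta plus TNF-alpha plus IFN-gamma mixture; protective hits raise ATP signal compared with cytokine alone wells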
[17] = viability loss in THP-1 monocytes – THP-1 cells, cytotoxicity control for Vif-APOBEC3G degradation inhibitor project, dose response (AID 1117359); assay type: functional; settings: THP-1

IC50 [1]: 5.36 µM (active)
IC50 [2]: 4.72 µM (active)
IC50 [3]: 3.9 µM (active)
IC50 [4]: 36.4 µM (inactive)
Compound: Cc1c(CC(=O)NCCCCCC(=O)O)c(=O)oc2c(C)c3oc4c(c3cc12)CCCC4

IC50 [2]: 1.8 µM (active)
IC50 [5]: 1.82 µM (active)
IC50 [6]: 6.29 µM (active)
Compound: O=C(N/N=C/c1ccc(OC(=O)c2ccc3c(c2)OCO3)cc1)c1cncc(Br)c1

Compound: C=Cc1ccc(C(=O)N2CCCC(CCC(=O)N3CCN(c4ccccn4)CC3)C2)cc1 (stereo not given)
IC50 [7]: > 66.6 µM (inactive)
IC50 [2]: 22.2 µM (active)
IC50 [8]: > 50 µM (inactive)
IC50 [9]: 8.01 µM (active)
IC50 [10]: 20.8 µM (inactive)

Compound: O=C(/C=C/c1ccc(Cl)c([N+](=O)[O-])c1)c1ccc(O)cc1
AC50 [11]: 4.36 µM (active)
IC50 [12]: 7.04 µM (active)
AC50 [13]: 17.4 µM (active)

Compound: COCC(=O)N(C)C[C@H]1Oc2cc(C#Cc3cccnc3)ccc2S(=O)(=O)N([C@@H](C)CO)C[C@H]1C
AC50 [14]: 1.09 µM (active)

Compound: C[C@@H]1CN([C@H](C)CO)S(=O)(=O)c2ccc(C#CC3(O)CCCC3)cc2O[C@@H]1CN(C)C(=O)c1cccnc1
AC50 [14]: 9.98 µM (active)

Compound: COc1ccc(Br)cc1CN1CCN(Cc2c[nH]c3ccccc23)CC1
CC50 [15]: 79.4 µM (active)
IC50 [16]: 86 µM (active)
AC50 (INS1): 6.6 µM (active)

IC50 [8]: > 50 µM (inactive)
IC50 [5]: 9.46 µM (active)
IC50 [9]: 13.1 µM (active)
IC50 [6]: 6.48 µM (active)
Compound: CCOc1cc(/C=C(/C#N)C(=O)Nc2ccc(OC)cc2)ccc1OCc1ccc(C(=O)O)cc1

Compound: NN=C1C(Cl)=C(Cl)C(Cl)=C1Cl
IC50 [1]: 1.45 µM (active)
CC50 [17]: > 40 µM (active)
IC50 [3]: 1.99 µM (active)
IC50 [4]: > 80 µM (inactive)
IC50 [5]: 38.7 µM (inactive)
IC50 [6]: 7.19 µM (active)

From ChEMBL document CHEMBL1201862, “PubChem BioAssay data set” (2004)
